Laboratory results reported in patent US5849753A, “Pyridyl imidazole derivatives and processes for the preparation thereof” (Korea Research Institute of Chemical Technology, priority 1994, dated 1998).
Values belong to the molecule of their own block, whether it stands above or below them.

Tests used:
renal hypertensive rat [1] = experiment: Blood pressure lowering effect in renal hypertension (renal hypertensive rats, intravenous or oral); format: in vivo, male Sprague-Dawley rats; settings: 3 mg, read-out: Maxium Blood Pressure Lowering Effect(%)
Source text: (§1) To induce renal hypertension, left renal artery of 4 week-old male Sprague-Dawley rats(from The Korea Research Institute of Chemical Technology) was ligated. The rats were anesthetized with ether and the surgical region on the left abdomen of the rat was shaved, disinfected, and then incised about 1 cm vertically. The renal artery near abdominal aorta was isolated carefully from surrounding tissues and veins, and then ligated completely with a suture(4/0 sterile surgical silk). The muscular strata and skin of the surgical area were sutured with a suture(4/0 sterile surgical silk). The surgical region was disinfected to prevent infection and thereafter, 200 to 250 mg/Kg/day of cephazolin sodium was injected intramuscularly for 2 days. 6 to 8 days after the ligation, rats showing systolic pressure of more than 180 mmHg were selected for renal hypertension test. The blood pressure was determined by a tail-cuff method from the tail under unanesthetized condition(Gerold, M. et al., Arzneimittrel-Forsch, 18, 1285(1968)).
(§2) Each of the compounds to be tested was administered intravenously or orally into the renal hypertensive rat. The blood pressure of the rats was determined by direct method(Chiu, A. T. et al., J. Pharmacol. Exp. Ther. 250, 867(1989)) using a catheter. The rats were anesthetized with ketamine hydrochloride(125 mg/kg, i.p.) and a catheter was filled with saline and inserted into a carotid artery and carotid vein. The surgical area was sutured with a metal clip. The rats were relaxed at least 3 hours and the catheter in the carotid artery was adapted to an isotec pressure transducer to determine their blood pressure and heart rate with a physiograph(Linearcorder WR3310). After the blood pressure was stabilized, the test compound was administered intravenously or orally. For intravenous administration, the administered volume and washing volume were 1.0 ml/Kg and 0.2 ml, respectively. The blood pressure and heart rate were measured in regular intervals up to 24 hours after the administration of the test compound and compared with those measured after the administration of the control compound Losartan.
(§3) The test compound was dissolved in 0.05N KOH for intravenous administration and suspended in Tween 80 for oral administration.

renal hypertensive rat [2] = experiment: Blood pressure lowering effect on oral administration to rats at several doses; format: in vivo, male Sprague-Dawley rats
Source text: as §1, §2, §3
(iii) Blood pressure lowering effect The present compounds, Losartan(Dup 753) and the Merck compound were administrated orally to rats in 10, 3, 1, 0.3 and 0.1 mg/kg under the same condition as in (ii) and the blood pressure lowering effect was determined.

unanesthetized dogs = experiment: Blood pressure lowering effect in unanesthetized dogs (furosemide treated); format: in vivo, dog; set-up: Maximum blood pressure lowering effect in a dog: unit not given here; settings: oral; for Blood pressure variation with time: 3 mg
Experimental: A number of dogs were fed freely in a feeding room and those weighing 7 to 12 kg in good health were selected regardless of their gender.
The test dogs were anesthetized with 30 mg/kg of pentobarbital sodium by intravenous injection and the left femoral artery and femoral vein were separated carefully. Silicone catheter, specially prepared and filled with saline treated with heparin(1,000 IU/ml), was cannulated into the blood vessels. After the surgery, the dogs were constrained to measure their blood pressure continuously with Gould 2000 physiograph adapted to a Grass P23 XL pressure transducer; and their heart rates were monitored with ECG/Biotacho amplifier. The dogs were tested at least 2 days after the surgery.
10 mg/kg of furosemide was injected intramuscularly 18 hours(in case of intravenous injection, 2 hours) before the beginning of the test (administration of the test compound) to improve the activity of renin in blood plasma. After the injection of furosemide, neither food nor water was provided. The test compound was suspended in Tween 80 and administered in an amount of 20 mg/kg orally. The blood pressure and heart rate were measured up to 8 hours after the administration of each test compound.
The maximum blood pressure lowering effect of the present compounds and the control compounds were determined in different amounts of administration using the same method as […]

angiotensin II receptor = experiment: Angiotensin II Receptor Binding Assay ([3H] angiotensin II binding inhibition); settings: [3H] angiotensin II ligand; 60 minutes, 25° C.; test concentration not given
Experimental: In accordance with the procedure disclosed in Chiu, A. T. et al., Eur. J. Pharm., 157, 13(1981), a ligand marked with a radioisotope was reacted with an angiotensin II receptor and the reactant was filtered with a glass fiber to remove unreacted ligand. After washing the filter, the amount of the remaining isotope was measured to determine the binding activity of the ligand, as described below in detail.
Sprague-Dawley rats and Wistar rats of 250 to 350 g(from The Korea Research Institute of Chemical Technology) were tested and the test procedures were carried out at 4° C., unless otherwise specified. Adrenal gland was separated from the Sprague-Dawley rats(liver, in the case of Wistar rats) into cortex and medulla. The separated adrenal cortex and medulla were washed with a sucrose buffer solution (0.2M sucrose, 1 mM EDTA, 10 mM Tris, pH 7.2) and homogenized in the same buffer solution by using a Teflon pestle and a Brinkmann homogenizer. The homogenates were centrifuged at 3,000 Xg for 10 minutes to remove precipitates and further centrifuged at 12,000 Xg for 13 minutes. The final supernatants were centrifuged at 102,000 Xg for 1 hour to obtain precipitates, which were washed with a Tris buffer solution(50 mM Tris, 5 mM MgCl2, pH 7.2) and re-centrifuged at 102,000 Xg for 1 hour. The resulting precipitates were immediately processed at the following step or stored at -70° C.
The precipitates were suspended in a Tris buffer solution. The amount of protein was determined by using a Bio-Rad DC protein analyzing kit and the protein concentration was adjusted to the amounts of: 0.2 to 0.3 mg/ml(Sprague-Dawley rat: adrenal cortex), 1.5 to 2.0 mg/ml(Sprague-Dawleyrat: adrenal medulla), and 1.5 to 2.0 mg/ml(Wistar rat: liver). To the suspension, bovine serum albumin(BSA) was added to a concentration of 0.25 wt % and the resultant was immediately processed at the following step or stored at -70° C.
(ii) Measurement of angiotensin II receptor binding capacity 50 μl(based on ligand) of [^3 H] angiotensin II(NEN, NET-446) and 10 μl of each of the test compounds with various concentrations were added to the buffer solution(50 mM Irris(pH 7.2), 5 mM MgCl2, 0.25% BSA) to adjust the final volume to be 0.5 ml. 100 μl of the receptor suspension was added thereto and the resulting solution was reacted for 60 minutes while stirring in a water bath at 25° C. 3 ml of cold buffer solution for analysis was added to cease the reaction. The isotope which was bound to the receptor was isolated from the resultant by using Brandel Cell Harvester System with Whatman glass fiber GF/C. After washing the filter, the radioactivity of the filter was determined by using a liquid scintillation counter. Binding inhibition(%) of the test compound was calculated as follows:
Binding Inhibition(%)=[{(T--B)-(S--B)}/(T--B)]×100
wherein T is cpm of the reaction product untreated with the test compound, S is cpm of the reaction product treated with the test compound, and B is cpm of blank test.

- Binding Inhibition(%) (angiotensin II receptor): 48.0%
Structure (SMILES): CCCCc1nc(Cl)c(CO)n1Cc1ccc(-c2ccccc2-c2nn[nH]n2)cc1 [Losartan(Dup 753), Losartan, reference compound]
- change in vivo at 3 mg (renal hypertensive rat [1]): -30%
- blood pressure lowering effect (renal hypertensive rat [2]; 3 mg/kg): 30%
- blood pressure lowering effect (renal hypertensive rat [2]; 10 mg/kg): 46%
- Maximum blood pressure lowering effect in a dog (unanesthetized dogs; 3 mg/kg): 13
- Maximum blood pressure lowering effect in a dog (unanesthetized dogs; 10 mg/kg): 23
- Blood pressure variation with time (unanesthetized dogs; dogs, 0.5 hr): -11.0%
- Blood pressure variation with time (unanesthetized dogs; dogs, 1 hr): -12.3%
- Blood pressure variation with time (unanesthetized dogs; dogs, 2 hr): -12.8%
- Blood pressure variation with time (unanesthetized dogs; dogs, 4 hr): -9.9%
- Blood pressure variation with time (unanesthetized dogs; dogs, 6 hr): -10.1%
- Blood pressure variation with time (unanesthetized dogs; dogs, 8 hr): -8.2%
- maximum blood pressure lowering effect lasted up to (after the administration) (unanesthetized dogs; dogs, as shown in Table 3): up to 2 hours

- Binding Inhibition(%) (angiotensin II receptor): 81.9%
Structure (SMILES): CCCCc1nc2cc(-c3ccccc3OC)c(C(OC)OC)nc2n1Cc1ccc(-c2ccccc2-c2nn[nH]n2)cc1 [Example 20, 2-butyl-5-dimethoxymethyl-6-(2-methoxyphenyl-1-yl)-3-[2'-(1H-tetrazol-5-yl)-biphenyl-4-ylmethyl]-3H-imidazo[4,5-b]pyridine]
- change in vivo at 3 mg (renal hypertensive rat [1]): -25%

- Binding Inhibition(%) (angiotensin II receptor): 77.8%
Structure (SMILES): CCCCc1nc2cc(-c3ccccc3)c(C(OC)OC)nc2n1Cc1ccc(-c2ccccc2-c2nnn[nH]2)cc1 [Example 1, 2-butyl-5-dimethoxymethyl-6-phenyl-3-[2'-(1H-tetrazol-5-yl)biphenyl-4-ylmethyl]-3H-imidazo[4,5-b]pyridine]
- change in vivo at 3 mg (renal hypertensive rat [1]): -40%
- blood pressure lowering effect (renal hypertensive rat [2]; 1 mg/kg): 25%
- blood pressure lowering effect (renal hypertensive rat [2]; 3 mg/kg): 38%
- Maximum blood pressure lowering effect in a dog (unanesthetized dogs; 1 mg/kg): 15
- Maximum blood pressure lowering effect in a dog (unanesthetized dogs; 3 mg/kg): 35
- Maximum blood pressure lowering effect in a dog (unanesthetized dogs; 10 mg/kg): 41
- Blood pressure variation with time (unanesthetized dogs; dogs, 0.5 hr): -31.3%
- Blood pressure variation with time (unanesthetized dogs; dogs, 1 hr): -32.6%
- Blood pressure variation with time (unanesthetized dogs; dogs, 2 hr): -34.0%
- Blood pressure variation with time (unanesthetized dogs; dogs, 4 hr): -33.0%
- Blood pressure variation with time (unanesthetized dogs; dogs, 6 hr): -30.1%
- Blood pressure variation with time (unanesthetized dogs; dogs, 8 hr): -25.9%

- Binding Inhibition(%) (angiotensin II receptor): 94.8%
Structure (SMILES): CCCCc1nc2cc(-c3cccnc3)c(C(OC)OC)nc2n1Cc1ccc(-c2ccccc2-c2nnn[nH]2)cc1 [Example 22, 2-butyl-5-dimethoxymethyl-6-(pyridin-3-yl)-3-[2'-(1H-tetrazol-5-yl)-biphenyl-4-ylmethyl]-3H-imidazo[4,5-b]pyridine]
- change in vivo at 3 mg (renal hypertensive rat [1]): -38%

- Binding Inhibition(%) (angiotensin II receptor): 92.2%
Structure (SMILES): CCCCc1nc2cc(-c3cccc[n+]3[O-])c(C(OC)OC)nc2n1Cc1ccc(-c2ccccc2-c2nn[nH]n2)cc1 [Example 21, 2-butyl-5-dimethoxymethyl-6-(1-oxy-pyridin-2-yl)-3-[2'-(1H-tetrazol-5-yl)-biphenyl-4-ylmethyl]-3H-imidazo[4,5-b]pyridine]
- change in vivo at 3 mg (renal hypertensive rat [1]): -20%

- Binding Inhibition(%) (angiotensin II receptor): 94.9%
Structure (SMILES): CCCCc1nc2cc(-c3ccc[n+]([O-])c3)c(C(OC)OC)nc2n1Cc1ccc(-c2ccccc2-c2nn[nH]n2)cc1 [Example 24, 2-butyl-5-dimethoxymethyl-6-(1-oxy-pyridin-3-yl)-3-[2'-(1H-tetrazol-5-yl)-biphenyl-4-ylmethyl]-3H-imidazo[4,5-b]pyridine]
- change in vivo at 3 mg (renal hypertensive rat [1]): -18%

- Binding Inhibition(%) (angiotensin II receptor): 89.4%
Structure (SMILES): CCCCc1nc2cc(-c3ccc(CO)cc3)c(C(OC)OC)nc2n1Cc1ccc(-c2ccccc2-c2nn[nH]n2)cc1 [Example 18, 2-butyl-5-dimethoxymethyl-6-(4-hydroxymethylphenyl-1-yl)-3-[2'-(1H-tetrazol-5-yl)-biphenyl-4-ylmethyl]-3H-imidazo[4,5-b]pyridine]
- change in vivo at 3 mg (renal hypertensive rat [1]): -33%
